In patent publication EP4803511A1, “SMALL MOLECULE COMPOUND HAVING SULFONIC ACID OR SULFINIC ACID LACTONE STRUCTURE, COMPOSITION AND USE THEREOF” (Hangzhou Phecdamed Co., Ltd., priority 2023, dated 2025):

Experiments:
[1] = test system: reactive oxygen species (ROS); assay: Zebrafish oxidative aging model (menadione), ROS content; format: in vivo; conditions: I-8 at 22.2 µg/mL, 22 hrs, 4 µM menadione; compared with the modeling group, statistical significance
Protocol: Experimental animal: Healthy wild-type AB strain zebrafish at 48 hpf (hours post-fertilization)
Healthy AB strain zebrafish were taken as experimental animal. A zebrafish oxidative aging model was constructed using chemical mutagenesis with 4 µM menadione as the modeling drug. Fucoxanthin was used as a positive control compound. After treating the zebrafish oxidative aging model with different concentrations of I-8 for 22 hrs, changes in the reactive oxygen species (ROS) content, β-galactosidase activity, and the expression of three antioxidant and anti-aging related genes (Cu/Zn-sod, Mn-sod, and ampk) were respectively detected and statistically analyzed.
During the experiment, the modeling drug, positive compound, and I-8 were dispersed together in the culture water of zebrafish. […] Cell ROX™ Deep Red fluorescent probes and β-galactosidase staining kits were used to specifically label ROS and β-galactosidase in the fish, respectively, and the staining intensity was quantified using Image-Pro Plus software. After extracting RNA from the whole fish, the expression changes of three genes (Cu/Zn-sod, Mn-sod, and ampk) in the fish were detected at the mRNA level using Quantitative Real-time PCR (RT-qPCR). The data were statistically analyzed using GraphPad software.

COL4A1 = assay: Collagen IV gene expression in HaCaT human immortalized keratinocytes; format: cell-based; conditions: 24 hrs, dose-dependent
From the text: (§1) Skin fragility is partly attributed to changes in hemidesmosomes and the expression downregulation of various collagen proteins (Collagen I, III, IV, VII) or laminins (such as LN-5) at the dermal-epidermal junction. LN-5 has been proven to be a component of anchoring fibers in the basement membrane of the skin, cornea, conjunctiva, and other tissues. LN-5 participates in cell-cell interactions through the mediation of integrins and proteoglycans, thereby playing a crucial role in cell adhesion, growth, migration, and differentiation. The appearance of wrinkles is closely related to the normal synthesis and expression of collagen and laminins. Therefore, the increase of the above collagen content and LN-5 can achieve a certain role in resisting wrinkles, and plays an important role in the aging process of the skin. Therefore, the anti-wrinkle effect of the compound to be tested was evaluated by detecting the level of Collage I protein of […] by ELISA, and detecting the transcription levels of epidermal cells (keratinocytes) III, IV, VII and LN -5 by Real-Time PCR. The following Test Examples 8-1 and 8-2 evaluated the anti-wrinkle efficacy of compounds using HaCaT human immortalized keratinocytes and HSF human skin fibroblasts. […]

COL3A1 = assay: Collagen III gene expression in HaCaT human immortalized keratinocytes; format: cell-based; conditions: 24 hrs, dose-dependent
From the text: as §1

type I collagen = assay: Type I collagen expression in HSF human skin fibroblasts (ELISA); format: cell-based; conditions: 24 hrs, dose-dependent
From the text: as §1

IL-8 = IL-8 gene expression in HaCaT after UVB radiation (q-PCR); format: cell-based, human; conditions: UVB 80 mJ/cm^2, 24 hrs, dose-dependent
From the text: In the following Test Examples 6-1 and 6-2, using immortalized keratinocytes (HaCaT) and UVB to establish a model, after the compound to be test was applied to HaCaT, the expression levels of TNF-α, IL-8, IL-1β and EP2 were detected; using immortalized keratinocytes (HaCaT) and capsaicin to establish a model, after the compound to be test was applied to HaCaT, the expression level of TRPV1 was detected, so as to evaluate the soothing effect of the test substance from multiple dimensions.
• 1) Cell inoculation: HaCaT cells were inoculated into a 6-well plate at 6×10^5/well, cultured in an incubator (37°C, 5% CO2) for 12 hrs, and a normal control group (0 mJ/cm^2 + vehicle control), a model control group (80 mJ/cm^2 + vehicle control), a low concentration group (80 mJ/cm^2 + low concentration compound), a medium concentration group (80 mJ/cm^2 + medium concentration compound), and a high concentration group (80 mJ/cm^2 + high concentration compounds) were respectively provided. • 2) UVB modeling: The HaCaT cells were washed 3 times with D'Hanks before UVB radiation, 1 mL of D'Hanks was added into the wells, to make the cells to be immersed, and the control group was coated with tinfoil and placed in the dark. […]

[2] = test system: wild-type AB strain zebrafish; assay: Zebrafish model, relieving stinging efficacy (SDS-induced, movement distance and speed); format: in vivo; conditions: zebrafish 3 dpf, 100 µM SDS model; effective concentrations 22.2, 66.6, and 200 µg/mL
Protocol: Experimental animal: Healthy wild-type AB strain zebrafish at 3 dpf (days post fertilization)
Evaluation of the relieving stinging efficacy: Healthy AB strain zebrafish were taken and randomly divided into four groups: blank control, modeling group, positive control, and sample group. The zebrafish in the blank control group were treated with embryo culture water; the zebrafish in the modeling group were treated with a modeling drug (100 µM SDS , sodium dodecyl sulfate); the zebrafish in the positive control group were treated with both the modeling agent and a positive control drug (200 µM asiaticoside solution); and the zebrafish in the sample group were treated with both the modeling drug and different concentrations of the test sample (high, medium, and low concentrations). After continuous treatment for a certain period, the zebrafish's behavioral trajectories were recorded using a behavior analyzer, and the changes in total movement distance and speed were statistically analyzed, the results are shown in FIGS. 2-4. […] In the behavioral trajectory diagram in FIG. 2, the black lines represent the zebrafish's behavioral trajectories in the hole; the more numerous and chaotic the lines, the more vigorous the movement of the zebrafish.

Compound: O=S1(=O)Oc2cc(O)ccc2-c2ccc(O)cc21 [Compound I-8]
- ROS content [1]: downregulated
- COL4A1 gene expression (COL4A1): upregulate
- COL341 gene expression (COL3A1): upregulate
- secretion of type I collagen (type I collagen): improving the secretion of type I collagen
- expression level of IL-8 (IL-8): downregulating
- relieving stinging efficacy [2]: certain relieving stinging efficacy
